Assay results from PMC3559828 (PLoS ONE, 2013).
Bridge positions count the residues as written; N and C are the ends. Peptide text beside a SMILES is read from it.

Experiments:
α3β4 nAChR = conditions: cited from earlier work
α6/α3β2β3 nAChR = conditions: cited from earlier work
α9α10 nAChR [1] = conditions: cited from earlier work
GABAB receptors = conditions: cited from earlier work
Rat α7 nAChR = target: T1, Rat α7 nAChR (Rattus norvegicus, UniProt Q05941); experiment: cell-based
T1 construct: expressed in transfected cells; host or cells: Xenopus oocytes injected with cRNA

Rat α3β4 nAChR = target: T2, Rat α3β4 nAChR (Rattus norvegicus, UniProt P04757+P12392); experiment: cell-based
T2 construct: expressed in transfected cells; host or cells: Xenopus oocytes injected with cRNA

Rat α9α10 nAChR = target: T3, Rat α9α10 nAChR (Rattus norvegicus, UniProt P43144+Q9JLB5); experiment: cell-based
T3 construct: expressed in transfected cells; host or cells: Xenopus oocytes injected with cRNA

α9α10 nAChR [2] = target: T4, α9α10 nAChR (Rattus norvegicus, UniProt P43144+Q9JLB5); assay type: cell-based
T4 construct: expressed in transfected cells; host or cells: Xenopus oocytes injected with cRNA

Rat α4β2 nAChR = target: T5, Rat α4β2 nAChR (Rattus norvegicus, UniProt P09483+P12390); experiment: cell-based
T5 construct: expressed in transfected cells; host or cells: Xenopus oocytes injected with cRNA

Rat α6/α3β4 nAChR = target: T6, Rat α6/α3β4 nAChR (Rattus norvegicus, UniProt P04757+P12392+P43143); experiment: cell-based
T6 construct: expressed in transfected cells; host or cells: Xenopus oocytes injected with cRNA

Rat α6/α3β2β3 nAChR = target: T7, Rat α6/α3β2β3 nAChR (Rattus norvegicus, UniProt P04757+P12390+P12391+P43143); experiment: cell-based
T7 construct: expressed in transfected cells; host or cells: Xenopus oocytes injected with cRNA

Rat α2β4 nAChR = target: T8, Rat α2β4 nAChR (Rattus norvegicus, UniProt P12389+P12392); experiment: cell-based
T8 construct: expressed in transfected cells; host or cells: Xenopus oocytes injected with cRNA

Rat α2β2 nAChR = target: T9, Rat α2β2 nAChR (Rattus norvegicus, UniProt P12389+P12390); experiment: cell-based
T9 construct: expressed in transfected cells; host or cells: Xenopus oocytes injected with cRNA

Rat α3β2 nAChR = target: T10, Rat α3β2 nAChR (Rattus norvegicus, UniProt P04757+P12390); experiment: cell-based
T10 construct: expressed in transfected cells; host or cells: Xenopus oocytes injected with cRNA

Rat α4β4 nAChR = target: T11, Rat α4β4 nAChR (Rattus norvegicus, UniProt P09483+P12392); experiment: cell-based
T11 construct: expressed in transfected cells; host or cells: Xenopus oocytes injected with cRNA
T11 sequence (P09483 31-630 limits assumed): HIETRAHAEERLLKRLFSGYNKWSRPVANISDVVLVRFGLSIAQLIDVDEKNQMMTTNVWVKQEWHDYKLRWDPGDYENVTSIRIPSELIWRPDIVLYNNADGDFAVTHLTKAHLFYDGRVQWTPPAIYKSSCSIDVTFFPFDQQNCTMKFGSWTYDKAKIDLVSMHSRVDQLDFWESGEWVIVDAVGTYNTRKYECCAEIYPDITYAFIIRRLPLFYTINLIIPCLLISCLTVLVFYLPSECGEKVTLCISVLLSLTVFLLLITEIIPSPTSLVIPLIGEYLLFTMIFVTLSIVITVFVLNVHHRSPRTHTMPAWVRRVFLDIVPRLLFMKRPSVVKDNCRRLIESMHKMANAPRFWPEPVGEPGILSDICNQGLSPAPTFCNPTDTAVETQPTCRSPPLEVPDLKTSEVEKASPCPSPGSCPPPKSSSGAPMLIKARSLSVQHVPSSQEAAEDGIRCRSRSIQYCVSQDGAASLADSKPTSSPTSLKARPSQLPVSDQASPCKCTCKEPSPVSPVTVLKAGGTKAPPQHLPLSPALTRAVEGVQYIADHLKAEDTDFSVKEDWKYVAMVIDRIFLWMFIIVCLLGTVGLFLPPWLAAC
T11 sequence (P12392 21-495 limits assumed): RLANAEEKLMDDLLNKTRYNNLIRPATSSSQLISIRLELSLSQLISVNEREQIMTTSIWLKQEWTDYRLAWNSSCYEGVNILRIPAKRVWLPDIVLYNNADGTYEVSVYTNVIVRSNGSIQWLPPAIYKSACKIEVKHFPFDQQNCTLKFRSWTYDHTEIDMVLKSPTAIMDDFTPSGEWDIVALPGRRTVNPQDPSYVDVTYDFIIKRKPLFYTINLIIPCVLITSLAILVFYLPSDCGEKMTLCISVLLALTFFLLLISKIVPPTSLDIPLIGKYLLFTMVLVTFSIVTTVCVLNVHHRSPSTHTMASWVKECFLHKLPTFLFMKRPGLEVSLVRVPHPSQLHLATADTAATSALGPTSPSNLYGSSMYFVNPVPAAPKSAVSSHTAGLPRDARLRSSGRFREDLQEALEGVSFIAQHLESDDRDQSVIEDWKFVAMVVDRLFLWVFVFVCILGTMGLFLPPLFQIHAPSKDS

T1 sequence (Q05941 23-502 limits assumed): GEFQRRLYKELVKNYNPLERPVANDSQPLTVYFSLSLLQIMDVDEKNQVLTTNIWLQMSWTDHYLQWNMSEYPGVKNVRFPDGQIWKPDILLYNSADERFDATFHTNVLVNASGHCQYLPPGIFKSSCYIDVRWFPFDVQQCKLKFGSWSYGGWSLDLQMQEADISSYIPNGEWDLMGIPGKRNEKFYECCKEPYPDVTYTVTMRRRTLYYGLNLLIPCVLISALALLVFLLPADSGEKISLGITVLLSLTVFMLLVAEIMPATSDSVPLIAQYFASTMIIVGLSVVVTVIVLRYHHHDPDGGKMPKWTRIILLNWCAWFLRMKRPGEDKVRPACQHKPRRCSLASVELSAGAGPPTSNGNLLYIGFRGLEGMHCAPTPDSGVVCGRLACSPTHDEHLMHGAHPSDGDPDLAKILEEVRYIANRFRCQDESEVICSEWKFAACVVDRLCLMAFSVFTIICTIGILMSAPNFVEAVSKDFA
T3 sequence (P43144 26-479 limits assumed): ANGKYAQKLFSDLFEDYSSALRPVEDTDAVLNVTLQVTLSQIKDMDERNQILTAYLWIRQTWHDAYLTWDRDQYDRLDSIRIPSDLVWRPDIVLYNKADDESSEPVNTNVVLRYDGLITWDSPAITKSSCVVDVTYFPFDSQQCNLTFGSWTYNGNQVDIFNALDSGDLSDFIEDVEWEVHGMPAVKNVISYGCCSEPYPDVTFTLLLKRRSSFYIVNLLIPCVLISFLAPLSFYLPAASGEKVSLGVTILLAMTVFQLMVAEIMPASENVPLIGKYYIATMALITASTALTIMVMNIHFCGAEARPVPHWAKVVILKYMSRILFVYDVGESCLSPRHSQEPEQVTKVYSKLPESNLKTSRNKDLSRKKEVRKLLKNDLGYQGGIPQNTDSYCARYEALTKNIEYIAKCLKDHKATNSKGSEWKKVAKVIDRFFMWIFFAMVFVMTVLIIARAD
T3 sequence (Q9JLB5 25-447 limits assumed): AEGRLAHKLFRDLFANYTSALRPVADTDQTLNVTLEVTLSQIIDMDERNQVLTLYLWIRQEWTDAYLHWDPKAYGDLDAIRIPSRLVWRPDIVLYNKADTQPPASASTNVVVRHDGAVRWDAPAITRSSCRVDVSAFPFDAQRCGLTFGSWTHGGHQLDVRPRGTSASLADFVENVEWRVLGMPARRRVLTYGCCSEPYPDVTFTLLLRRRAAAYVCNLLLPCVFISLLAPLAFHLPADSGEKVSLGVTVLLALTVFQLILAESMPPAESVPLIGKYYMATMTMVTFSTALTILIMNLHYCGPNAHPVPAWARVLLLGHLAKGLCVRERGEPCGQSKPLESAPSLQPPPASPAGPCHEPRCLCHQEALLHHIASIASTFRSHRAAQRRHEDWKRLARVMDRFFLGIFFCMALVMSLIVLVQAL
T5 sequence (P09483 31-630 limits assumed): as the sequence (P09483 31-630 limits assumed) above
T5 sequence (P12390 25-500 limits assumed): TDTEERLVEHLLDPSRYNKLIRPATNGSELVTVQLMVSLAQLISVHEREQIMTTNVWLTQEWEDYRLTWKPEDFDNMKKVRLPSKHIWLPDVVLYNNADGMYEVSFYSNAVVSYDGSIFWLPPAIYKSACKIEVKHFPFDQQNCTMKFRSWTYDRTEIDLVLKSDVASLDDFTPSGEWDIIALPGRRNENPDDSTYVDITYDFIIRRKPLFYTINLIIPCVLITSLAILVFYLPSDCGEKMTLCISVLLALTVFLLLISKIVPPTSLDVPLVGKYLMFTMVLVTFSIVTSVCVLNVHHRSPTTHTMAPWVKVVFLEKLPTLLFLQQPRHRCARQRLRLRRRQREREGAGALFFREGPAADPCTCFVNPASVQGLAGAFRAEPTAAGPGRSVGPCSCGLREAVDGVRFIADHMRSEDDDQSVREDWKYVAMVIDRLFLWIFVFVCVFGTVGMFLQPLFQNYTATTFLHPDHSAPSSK
T2 sequence (P04757 26-499 limits assumed): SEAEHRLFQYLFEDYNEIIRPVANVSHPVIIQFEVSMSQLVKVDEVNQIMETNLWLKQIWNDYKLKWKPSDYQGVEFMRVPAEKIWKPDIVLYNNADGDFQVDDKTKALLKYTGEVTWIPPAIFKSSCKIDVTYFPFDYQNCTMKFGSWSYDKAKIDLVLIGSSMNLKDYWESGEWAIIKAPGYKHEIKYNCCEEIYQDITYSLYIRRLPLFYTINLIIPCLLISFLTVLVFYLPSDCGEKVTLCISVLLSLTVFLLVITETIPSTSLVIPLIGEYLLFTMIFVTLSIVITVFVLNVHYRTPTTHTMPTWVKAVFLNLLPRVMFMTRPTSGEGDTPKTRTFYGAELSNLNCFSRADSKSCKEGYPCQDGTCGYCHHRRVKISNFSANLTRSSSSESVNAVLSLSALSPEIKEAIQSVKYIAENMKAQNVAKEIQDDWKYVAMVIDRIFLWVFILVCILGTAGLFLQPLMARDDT
T2 sequence (P12392 21-495 limits assumed): as the sequence (P12392 21-495 limits assumed) above
T9 sequence (P12389 28-511 limits assumed): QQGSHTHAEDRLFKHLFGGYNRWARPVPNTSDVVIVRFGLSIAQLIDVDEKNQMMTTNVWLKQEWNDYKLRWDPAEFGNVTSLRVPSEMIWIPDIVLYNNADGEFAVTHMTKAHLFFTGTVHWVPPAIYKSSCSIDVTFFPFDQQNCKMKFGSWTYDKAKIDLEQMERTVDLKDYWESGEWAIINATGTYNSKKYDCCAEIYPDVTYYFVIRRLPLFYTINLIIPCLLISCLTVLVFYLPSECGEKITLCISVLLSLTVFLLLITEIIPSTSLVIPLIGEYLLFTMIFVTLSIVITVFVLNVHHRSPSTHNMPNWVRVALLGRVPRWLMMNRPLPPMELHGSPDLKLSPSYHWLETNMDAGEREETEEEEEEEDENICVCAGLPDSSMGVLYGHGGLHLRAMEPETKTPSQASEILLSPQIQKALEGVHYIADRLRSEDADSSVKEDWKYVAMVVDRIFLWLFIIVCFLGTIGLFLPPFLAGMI
T9 sequence (P12390 25-500 limits assumed): as the sequence (P12390 25-500 limits assumed) above
T8 sequence (P12389 28-511 limits assumed): as the sequence (P12389 28-511 limits assumed) above
T8 sequence (P12392 21-495 limits assumed): as the sequence (P12392 21-495 limits assumed) above
T6 sequence (P43143+P04757 fused with the stated changes): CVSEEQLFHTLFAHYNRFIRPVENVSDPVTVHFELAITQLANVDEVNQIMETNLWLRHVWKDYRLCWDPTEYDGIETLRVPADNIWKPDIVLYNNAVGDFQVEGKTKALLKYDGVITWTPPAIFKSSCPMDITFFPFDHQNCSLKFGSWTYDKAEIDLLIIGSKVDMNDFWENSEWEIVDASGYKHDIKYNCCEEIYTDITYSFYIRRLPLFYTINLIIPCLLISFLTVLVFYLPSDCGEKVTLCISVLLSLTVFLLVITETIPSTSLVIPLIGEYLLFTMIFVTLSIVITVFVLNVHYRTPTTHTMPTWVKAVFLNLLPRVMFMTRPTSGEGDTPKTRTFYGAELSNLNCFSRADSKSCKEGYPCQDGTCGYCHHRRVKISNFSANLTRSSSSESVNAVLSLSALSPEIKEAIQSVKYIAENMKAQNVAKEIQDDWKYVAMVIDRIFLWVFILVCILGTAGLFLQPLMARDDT
T6 sequence (P12392 21-495): as the sequence (P12392 21-495 limits assumed) above
T10 sequence (P04757 26-499 limits assumed): as the sequence (P04757 26-499 limits assumed) above
T10 sequence (P12390 25-500 limits assumed): as the sequence (P12390 25-500 limits assumed) above
T4 sequence (P43144 26-479 limits assumed): as the sequence (P43144 26-479 limits assumed) above
T4 sequence (Q9JLB5 25-447 limits assumed): as the sequence (Q9JLB5 25-447 limits assumed) above

Compound | IC50 (α3β4 nAChR) | IC50 (α6/α3β2β3 nAChR) | IC50 (α9α10 nAChR [1]) | activity at GABAB receptors (GABAB receptors) | IC50 (Rat α7 nAChR) | IC50 (Rat α3β4 nAChR) | IC50 (Rat α9α10 nAChR) | activity at nAChRs (in words) (Rat α9α10 nAChR) | block of α9α10 current (Rat α9α10 nAChR) | block in the presence of Ba++ (in words) (α9α10 nAChR [2]) | IC50 (Rat α4β2 nAChR) | IC50 (Rat α6/α3β4 nAChR) | IC50 (Rat α6/α3β2β3 nAChR) | IC50 (Rat α2β4 nAChR) | IC50 (Rat α2β2 nAChR) | IC50 (Rat α3β2 nAChR) | IC50 (Rat α4β4 nAChR)
α-Conotoxin Vc1.1 | 4.2 µM | 0.14 µM | 0.005 µM | activate GABAB receptors |  |  |  |  |  |  |  |  |  |  |  |  | 
CC(C)C[C@@H]1NC(=O)[C@@H](NC(=O)[C@H](CCCNC(=N)N)NC(=O)[C@@H](N)C(C)C)CSSC[C@@H](C(=O)N[C@H](C(=O)N[C@@H](Cc2ccc(O)cc2)C(=O)N[C@@H](Cc2ccc(O)cc2)C(=O)N[C@H](C(=O)N[C@@H](CCC(N)=O)C(=O)N[C@@H](CO)C(=O)N[C@@H](CCCNC(=N)N)C(=O)N[C@@H](CCC(=O)O)C(=O)O)[C@@H](C)O)C(C)C)NC(=O)[C@H](CCCNC(=N)N)NC(=O)[C@H](CO)NC(=O)[C@H](Cc2c[nH]cn2)NC(=O)[C@H](CCCNC(=N)N)NC(=O)[C@H](C)NC(=O)[C@H](Cc2ccccc2)NC(=O)[C@H](CO)NC(=O)[C@@H]2CCCN2C(=O)CNC(=O)[C@H](CCCCN)NC(=O)[C@H](CCC(N)=O)NC(=O)[C@@H]2CSSC[C@H](NC(=O)[C@@H]3CCCN3C(=O)[C@@H]3CCCN3C(=O)[C@H](CCCNC(=N)N)NC(=O)[C@H](Cc3ccccc3)NC(=O)[C@H](CC(C)C)NC(=O)[C@H](CCCCN)NC(=O)[C@H](CC(N)=O)NC(=O)[C@@H]3CCCN3C(=O)[C@H](CCC(N)=O)NC(=O)[C@H](C)NC(=O)CNC(=O)[C@H](CO)NC(=O)[C@H](CCCCN)NC(=O)[C@H](CCC(=O)O)NC1=O)C(=O)N2 [αB-VxXXIVA [1], [4]] (H-VRCLEKSGAQPNKLFRPPCCQKGPSFARHSRCVYYTQSRE-OH; disulfide 3-32, 19-20) |  |  |  |  | > 30 µM | > 30 µM | > 30 µM | inactive | less than 15% | did not potently block | > 30 µM |  |  |  |  |  | 
CC(C)C[C@@H]1NC(=O)[C@@H](NC(=O)[C@H](CCCNC(=N)N)NC(=O)[C@@H](N)C(C)C)CSSC[C@@H](C(=O)N[C@H]2CSSC[C@@H](C(=O)N[C@H](C(=O)N[C@@H](Cc3ccc(O)cc3)C(=O)N[C@@H](Cc3ccc(O)cc3)C(=O)N[C@H](C(=O)N[C@@H](CCC(N)=O)C(=O)N[C@@H](CO)C(=O)N[C@@H](CCCNC(=N)N)C(=O)N[C@@H](CCC(=O)O)C(=O)O)[C@@H](C)O)C(C)C)NC(=O)[C@H](CCCNC(=N)N)NC(=O)[C@H](CO)NC(=O)[C@H](Cc3c[nH]cn3)NC(=O)[C@H](CCCNC(=N)N)NC(=O)[C@H](C)NC(=O)[C@H](Cc3ccccc3)NC(=O)[C@H](CO)NC(=O)[C@@H]3CCCN3C(=O)CNC(=O)[C@H](CCCCN)NC(=O)[C@H](CCC(N)=O)NC2=O)NC(=O)[C@@H]2CCCN2C(=O)[C@@H]2CCCN2C(=O)[C@H](CCCNC(=N)N)NC(=O)[C@H](Cc2ccccc2)NC(=O)[C@H](CC(C)C)NC(=O)[C@H](CCCCN)NC(=O)[C@H](CC(N)=O)NC(=O)[C@@H]2CCCN2C(=O)[C@H](CCC(N)=O)NC(=O)[C@H](C)NC(=O)CNC(=O)[C@H](CO)NC(=O)[C@H](CCCCN)NC(=O)[C@H](CCC(=O)O)NC1=O [αB-VxXXIVA [1], [2]] (H-VRCLEKSGAQPNKLFRPPCCQKGPSFARHSRCVYYTQSRE-OH; disulfide 3-19, 20-32) |  |  |  |  | > 30 µM | > 30 µM | 1.2 µM |  |  |  | > 30 µM | 30.1 µM | 12.2 µM | > 30 µM | 23.4 µM | > 30 µM | > 30 µM
CC(C)C[C@@H]1NC(=O)[C@@H](NC(=O)[C@H](CCCNC(=N)N)NC(=O)[C@@H](N)C(C)C)CSSC[C@@H]2NC(=O)[C@H](CSSC[C@@H](C(=O)N[C@H](C(=O)N[C@@H](Cc3ccc(O)cc3)C(=O)N[C@@H](Cc3ccc(O)cc3)C(=O)N[C@H](C(=O)N[C@@H](CCC(N)=O)C(=O)N[C@@H](CO)C(=O)N[C@@H](CCCNC(=N)N)C(=O)N[C@@H](CCC(=O)O)C(=O)O)[C@@H](C)O)C(C)C)NC(=O)[C@H](CCCNC(=N)N)NC(=O)[C@H](CO)NC(=O)[C@H](Cc3c[nH]cn3)NC(=O)[C@H](CCCNC(=N)N)NC(=O)[C@H](C)NC(=O)[C@H](Cc3ccccc3)NC(=O)[C@H](CO)NC(=O)[C@@H]3CCCN3C(=O)CNC(=O)[C@H](CCCCN)NC(=O)[C@H](CCC(N)=O)NC2=O)NC(=O)[C@@H]2CCCN2C(=O)[C@@H]2CCCN2C(=O)[C@H](CCCNC(=N)N)NC(=O)[C@H](Cc2ccccc2)NC(=O)[C@H](CC(C)C)NC(=O)[C@H](CCCCN)NC(=O)[C@H](CC(N)=O)NC(=O)[C@@H]2CCCN2C(=O)[C@H](CCC(N)=O)NC(=O)[C@H](C)NC(=O)CNC(=O)[C@H](CO)NC(=O)[C@H](CCCCN)NC(=O)[C@H](CCC(=O)O)NC1=O [αB-VxXXIVA [1], [3]] (H-VRCLEKSGAQPNKLFRPPCCQKGPSFARHSRCVYYTQSRE-OH; disulfide 3-20, 19-32) |  |  |  |  | > 30 µM | > 30 µM | 3.9 µM |  |  |  | > 30 µM | > 30 µM | > 30 µM | > 30 µM | > 30 µM | > 30 µM | > 30 µM
